We go through 1 compound from patent US8097616B2, “Process for preparation of high-purity meloxicam and meloxicam potassium salt” (Egis Gyogyszergyar Nyilvanosan Mukodo Reszvenytarsasag, priority 2004, dated 2012).

This data set can be described thus: solubility in water at the acidification pH. The class given is physicochemical. The settings on record: acidified until pH 6.

Turning to `Cc1cnc(NC(=O)C2=C(O)c3ccccc3S(=O)(=O)N2C)s1` [meloxicam, 4-hydroxy-2-methyl-N-(5-methyl-2-thiazolyl)-2H-1,2-benzothiazine-3-carboxamide-1,1-dioxide], the solubility in water result was “almost insoluble”.
